Source: patent US8703438B2, “Ligand binding stabilization method for drug target identification” (The Regents of the University of California, priority 2008, dated 2014)

Legend:
Format in all cases: binding
[1] = target: T1, proteins of human Jurkat cell lysate (EF-1alpha isoforms and others) (Homo sapiens, UniProt P00558); experiment: DARTS with DB-treated intact Jurkat cells, thermolysin, Coomassie staining and mass spectrometry of protected band; conditions: DB vs DMSO, mass spectrometry
T1 construct: endogenous in cells; host or cells: Jurkat cells
T1 sequence (P00558 1-417): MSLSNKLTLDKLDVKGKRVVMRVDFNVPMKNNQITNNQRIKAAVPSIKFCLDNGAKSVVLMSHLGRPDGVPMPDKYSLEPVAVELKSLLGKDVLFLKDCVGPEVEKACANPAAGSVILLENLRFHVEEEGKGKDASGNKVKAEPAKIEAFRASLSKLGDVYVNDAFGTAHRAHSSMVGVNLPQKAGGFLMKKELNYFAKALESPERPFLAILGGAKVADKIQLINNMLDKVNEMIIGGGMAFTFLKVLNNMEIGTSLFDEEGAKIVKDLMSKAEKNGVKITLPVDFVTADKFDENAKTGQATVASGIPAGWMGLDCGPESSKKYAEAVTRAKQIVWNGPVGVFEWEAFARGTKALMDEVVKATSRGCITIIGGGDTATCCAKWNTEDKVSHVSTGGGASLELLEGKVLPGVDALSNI
Source text: (§1) The experiments above established that DARTS can efficiently test, screen, or verify drug-protein interactions when the protein is available in relatively pure form. For DARTS to be generally useful as a discovery tool, however, applicability to complex protein mixtures (such as cell lysates) would be desirable. […] Given that EF-1 alpha is a highly abundant protein, we first tested whether in the DARTS protocol DB would protect EF-1 alpha from proteolysis and result in a detectable difference.
(§2) For FIGS. 3A and 3C, intact Jurkat cells were treated with DB from 100 pg/mL to 1 μg/mL or DMSO control for 30 min. Cells were lysed (without washing, in these experiments) with M-PER (Pierce) supplemented with protease and phosphatase inhibitors. After centrifugation (14,000 rpm, 15 min), lysates were diluted to the same final volume and protein concentration with M-PER and proteolysed in reaction buffer [50 mM Tris-HCl pH 8.0, 50 mM NaCl, 10 mM CaCl2]. All steps were performed on ice or at 4° C. to help prevent premature protein degradation. Each sample was then quickly warmed to room temperature and proteolysed with 1 μg thermolysin for every 15 μg lysate for 10 min. To stop proteolysis, 0.5 M EDTA (pH 8.0) was added to each sample at a 1:10 ratio, mixed well, and placed on ice.
(§3) Gel bands were cut out and prepared for mass spec analysis with trypsin digestion as described in SI. Peptides were analyzed by LC/MS/MS on a Thermo LTQ-Orbitrap mass spectrometer with an Eksigent LC pump. For quantitative comparison of protein and peptide abundances, MS spectra were analyzed using the differential workflow of Rosetta Elucidator (Rosetta Inpharmatics) (54). Annotation was performed using PeptideTeller and ProteinTeller (see SI).
(§4) The result could indicate lower affinity binding of DB to PGK1, or secondary effects on protein abundance because in this experiment the cells were treated with drug in vivo.
(§5) Proteins were initially identified by searching the spectra against the human International Protein Index database (version 3.46) and the S. cerevisiae Swissprot database (May 2008) using the SEQUEST algorithm (Eng et al. (1994) J Am Soc Mass Spectrom 5: 976-989) integrated into the Bioworks software package. Each peptide met the following criteria: XCorr ≧2 (+1), ≧3 (+2), ≧4 (+3), ≧5 (+4), and DeltaCN>0.1. For quantitative comparison of protein and peptide abundances, MS spectra were analyzed using the differential workflow of the Rosetta Elucidator software system (Rosetta Inpharmatics) (Neubert et al. (2008) J Proteome Res 7: 2270-2279). Annotation was performed using PeptideTeller and ProteinTeller with a minimum probability of 0.99 and predicted error of 0.0. Protein ratio data were generated with a P-value cutoff of 0.01 for all proteins with a peptide number >1. Intensity scaling was performed against the mean of feature signals, with 10% of outliers removed from the baseline dataset. Similar results were obtained in analysis without intensity scaling (FIG. 9A).

[2] = target: T2, proteins of human Jurkat cell lysate (EF-1alpha isoforms and others) (Homo sapiens, UniProt P06733); experiment: as above; conditions: DB vs DMSO, mass spectrometry
T2 construct: endogenous in cells; host or cells: Jurkat cells
T2 sequence (P06733 whole entry, canonical isoform): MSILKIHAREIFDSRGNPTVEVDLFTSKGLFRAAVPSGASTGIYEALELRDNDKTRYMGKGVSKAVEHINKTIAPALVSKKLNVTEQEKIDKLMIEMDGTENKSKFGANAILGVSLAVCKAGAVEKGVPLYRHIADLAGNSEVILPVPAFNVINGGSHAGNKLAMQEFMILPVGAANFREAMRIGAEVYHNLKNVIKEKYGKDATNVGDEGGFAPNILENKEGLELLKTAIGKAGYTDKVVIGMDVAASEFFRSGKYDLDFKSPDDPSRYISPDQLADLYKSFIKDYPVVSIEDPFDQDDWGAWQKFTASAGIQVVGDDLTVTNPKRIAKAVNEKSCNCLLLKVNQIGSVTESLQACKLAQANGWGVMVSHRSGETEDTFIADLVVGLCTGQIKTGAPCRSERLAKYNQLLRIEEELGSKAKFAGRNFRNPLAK
Source text: as §1, §2, §3, §4, §5

[3] = target: T3, proteins of human Jurkat cell lysate (EF-1alpha isoforms and others) (Homo sapiens, UniProt P68104); experiment: as above; conditions: DB vs DMSO, mass spectrometry
T3 construct: endogenous in cells; host or cells: Jurkat cells
T3 sequence (P68104 whole entry, canonical isoform): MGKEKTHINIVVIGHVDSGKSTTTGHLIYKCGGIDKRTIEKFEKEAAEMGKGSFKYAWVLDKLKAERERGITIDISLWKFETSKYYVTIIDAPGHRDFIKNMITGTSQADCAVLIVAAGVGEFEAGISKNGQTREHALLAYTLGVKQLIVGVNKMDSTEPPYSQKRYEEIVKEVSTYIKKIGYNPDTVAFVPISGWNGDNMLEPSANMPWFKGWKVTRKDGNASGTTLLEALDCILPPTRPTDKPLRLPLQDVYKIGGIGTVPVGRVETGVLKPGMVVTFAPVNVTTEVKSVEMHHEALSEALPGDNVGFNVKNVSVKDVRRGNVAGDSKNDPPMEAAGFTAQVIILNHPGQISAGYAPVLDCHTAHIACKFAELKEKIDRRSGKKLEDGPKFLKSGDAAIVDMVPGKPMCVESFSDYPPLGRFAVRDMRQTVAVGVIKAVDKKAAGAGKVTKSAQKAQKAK
Source text: as §1, §2, §3, §4, §5

[4] = target: T4, proteins of human Jurkat cell lysate (EF-1alpha isoforms and others) (Homo sapiens, UniProt Q05639); experiment: as above; conditions: DB vs DMSO, mass spectrometry
T4 construct: endogenous in cells; host or cells: Jurkat cells
T4 sequence (Q05639 whole entry, canonical isoform): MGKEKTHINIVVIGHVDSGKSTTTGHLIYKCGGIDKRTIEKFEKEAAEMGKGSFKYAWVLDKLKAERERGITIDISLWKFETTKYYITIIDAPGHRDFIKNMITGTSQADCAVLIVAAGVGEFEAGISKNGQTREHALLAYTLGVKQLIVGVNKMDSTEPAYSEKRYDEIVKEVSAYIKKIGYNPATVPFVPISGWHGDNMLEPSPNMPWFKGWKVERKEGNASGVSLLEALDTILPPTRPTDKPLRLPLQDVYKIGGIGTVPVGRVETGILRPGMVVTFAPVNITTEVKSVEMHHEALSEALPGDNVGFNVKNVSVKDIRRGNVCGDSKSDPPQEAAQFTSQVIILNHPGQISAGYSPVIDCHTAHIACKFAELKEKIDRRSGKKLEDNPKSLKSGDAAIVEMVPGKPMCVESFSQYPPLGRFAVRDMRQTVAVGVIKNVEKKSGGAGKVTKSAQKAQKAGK
Source text: as §1, §2, §3, §4, §5

[5] = target: T5, proteins of human Jurkat cell lysate (EF-1alpha isoforms and others) (Homo sapiens, UniProt Q13838); experiment: as above; conditions: DB vs DMSO, mass spectrometry
T5 construct: endogenous in cells; host or cells: Jurkat cells
T5 sequence (Q13838 whole entry, canonical isoform): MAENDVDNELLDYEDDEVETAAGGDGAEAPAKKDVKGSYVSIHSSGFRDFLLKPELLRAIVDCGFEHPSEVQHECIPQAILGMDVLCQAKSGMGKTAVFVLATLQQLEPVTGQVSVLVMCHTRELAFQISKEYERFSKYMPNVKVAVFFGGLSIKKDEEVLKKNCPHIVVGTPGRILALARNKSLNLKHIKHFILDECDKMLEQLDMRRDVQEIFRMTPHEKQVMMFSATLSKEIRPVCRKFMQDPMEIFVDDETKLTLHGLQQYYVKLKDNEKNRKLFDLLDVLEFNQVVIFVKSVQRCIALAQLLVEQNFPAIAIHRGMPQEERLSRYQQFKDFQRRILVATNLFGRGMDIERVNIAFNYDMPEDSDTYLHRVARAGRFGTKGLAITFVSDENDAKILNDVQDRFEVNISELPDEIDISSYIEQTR
Source text: as §1, §2, §3, §4, §5

[6] = target: T6, proteins of human Jurkat cell lysate (EF-1alpha isoforms and others) (Homo sapiens, UniProt Q9P2R7); experiment: as above; conditions: DB vs DMSO, mass spectrometry
T6 construct: endogenous in cells; host or cells: Jurkat cells
T6 sequence (Q9P2R7 53-463): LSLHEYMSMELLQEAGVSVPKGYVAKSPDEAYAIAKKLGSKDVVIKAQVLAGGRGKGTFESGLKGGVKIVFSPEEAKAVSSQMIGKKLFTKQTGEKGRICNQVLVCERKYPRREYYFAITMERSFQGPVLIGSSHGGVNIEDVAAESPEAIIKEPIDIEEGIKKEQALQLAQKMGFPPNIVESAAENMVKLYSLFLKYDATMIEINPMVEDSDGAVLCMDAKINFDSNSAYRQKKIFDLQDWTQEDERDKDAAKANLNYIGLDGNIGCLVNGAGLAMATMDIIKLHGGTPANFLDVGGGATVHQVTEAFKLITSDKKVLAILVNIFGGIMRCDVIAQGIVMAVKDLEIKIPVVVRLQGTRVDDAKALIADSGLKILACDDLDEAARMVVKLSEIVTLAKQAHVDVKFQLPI
Source text: as §1, §2, §3, §4, §5

[7] = system: proteins of human Jurkat cell lysate (EF-1alpha isoforms and others); experiment: as above; conditions: DB-treated Jurkat cells, 1 μg/mL, FIG. 3A
Source text: as §1, §2, §3, §4, §5

EF-1 alpha = target: T7, EF-1 alpha (Homo sapiens, UniProt P68104); experiment: DARTS with DB, detection of EF-1 alpha by immunoblotting
T7 construct: endogenous in cells; host or cells: Jurkat cells
T7 sequence (P68104 2-462): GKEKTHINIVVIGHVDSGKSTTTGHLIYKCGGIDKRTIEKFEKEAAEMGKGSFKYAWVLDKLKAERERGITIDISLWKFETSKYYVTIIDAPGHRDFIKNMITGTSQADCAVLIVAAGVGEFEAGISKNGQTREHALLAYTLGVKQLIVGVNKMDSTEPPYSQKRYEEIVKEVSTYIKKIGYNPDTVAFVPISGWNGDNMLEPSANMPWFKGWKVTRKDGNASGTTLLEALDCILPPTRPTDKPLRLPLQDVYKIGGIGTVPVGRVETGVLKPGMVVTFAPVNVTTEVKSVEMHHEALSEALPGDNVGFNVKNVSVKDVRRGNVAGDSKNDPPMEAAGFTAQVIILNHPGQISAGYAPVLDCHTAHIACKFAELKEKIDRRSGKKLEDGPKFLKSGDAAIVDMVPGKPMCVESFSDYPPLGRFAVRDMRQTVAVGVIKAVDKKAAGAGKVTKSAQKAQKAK
Method: FIG. 7 illustrates DARTS with Didemnin B using whole-cell lysates. Lysates from untreated human Jurkat cells were incubated with DMSO control or DB (1 ng/mL, 10 ng/mL, 100 ng/mL, 300 ng/mL, and 1 μg/mL) for 30 min at room temperature. Each sample was then split into two, which underwent thermolysin proteolysis, or mock digestion, respectively, followed by western blot analysis. Protection can be seen starting at 100 ng/mL.
Examination of the protected band and the matching gel region of the control lane by mass spectrometry confirmed that EF-1 alpha was the primary protein present at higher abundance in the DB-treated sample (FIG. 3B). […] The generality of this approach is further supported by experiments using diverse protein-drug pairs ranging from nano- to micro-molar: mTOR-rapamycin, COX-2celecoxib, and SCF E3 ubiquitin ligase-inhibitor (FIG. 8). Furthermore, DARTS is not enzyme specific, and much higher overall digestion efficiency can be achieved using other proteases while retaining protection of the target protein (see Example 2 and FIG. 9).
For FIGS. 3A and 3C, intact Jurkat cells were treated with DB from 100 pg/mL to 1 μg/mL or DMSO control for 30 min. […]
For FIG. 7, human Jurkat cells were lysed in M-PER (Pierce) supplemented with protease and phosphatase inhibitors. Protein concentration was determined by BCA Protein Assay kit (Pierce). […]

SMILES: CC[C@H](C)[C@H]1NC(=O)[C@@H](NC(=O)[C@@H](CC(C)C)N(C)C(=O)[C@@H]2CCCN2C(=O)C(C)O)[C@@H](C)OC(=O)[C@H](Cc2ccc(OC)cc2)N(C)C(=O)[C@@H]2CCCN2C(=O)[C@H](CC(C)C)NC(=O)[C@@H](C)C(=O)[C@H](C(C)C)OC(=O)C[C@@H]1O (stereo partly drawn) [DB, didemnin B]
- enrichment of PGK1 in protected band [1]: 2.4 fold
- change of ENO1 in protected band (depleted) [2]: −1.8 fold
- enrichment of EEF1A1 in protected band [3]: 18.7 fold
- enrichment of EEF1A2 in protected band [4]: 21.7 fold
- enrichment of BAT1 in protected band [5]: 7.5 fold
- enrichment of SUCLA2 in protected band [6]: 11.7 fold
- protected band on Coomassie-stained gel after thermolysin [7]: strong protected band
- concentration at which protection starts (EF-1 alpha; Jurkat lysates incubated in vitro 30 min, thermolysin, western blot, FIG. 7): 100 ng/mL
- proteolytic protection of EF-1 alpha by immunoblotting (EF-1 alpha; intact cells treated and lysates incubated in vitro): concentration dependent proteolytic protection
